Measured values as given in PMC9196629, “Synthesis, Characterization and Antitumor Mechanism Investigation of Heterometallic Ru(Ⅱ)-Re(Ⅰ) Complexes” (Frontiers in Chemistry, 2022).
Where “and” joins values, the source holds several entries; their conditions need not be identical. Equal entries are not always repeated.

Tests used:
[1] = system: HeLa (human cervical cancer cells); assay: MTT cytotoxicity assay; type: cell-based; conditions: 48 h incubation, mean ± SD
Experimental: (§1) The anticancer activities of RuRe-1 and RuRe-2 against four cancer cell lines: HeLa (human cervical cancer cells), HepG2 (human hepatocellular carcinoma), A549 (human lung cancer cells), A549R (cisplatin-resistant A549) and one normal cell line LO2 (human normal liver cells) were determined by 3-(4,5-dimethylthiazole)-2,5-diphenyltetraazolium bromide (MTT) assay, while the mononuclear complexes Ru-1, Ru-2, Re-1 and cisplatin were selected as controls. […] And the in vitro antiproliferative efficacies of the compounds against HeLa cells were in the following order: RuRe-2 > RuRe-1 > Re-1 > cisplatin > Ru-1 > Ru-2. […] The anticancer activity of the mononuclear rhenium complex Re-1 was between 5.6 μM and 8.0 μM, which contributed the most to the antitumor activities of the heteronuclear Ru(II)-Re(Ⅰ) metal complexes.
(§2) Cell lines and culture conditions. HeLa, HepG2, A549, A549R and LO2 cells were purchased from Nanjing KeyGen Biotech., and cultured in DMEM or RPMI 1640 complete medium at 37 ℃ with 5% CO2 atmosphere.
(§3) In vitro cytotoxicity assay. The anti-tumor activity of mononuclear complexes Ru-1, Ru-2, Re-1 and heteronuclear RuRe-1 and RuRe-2 were determined by MTT (5 mg/mL) assay. Cells were placed in 96-well plates and cultured for 24 h at 37 ℃ in a 5% CO2 incubator. After replacing the culture medium with fresh medium containing RuRe-1 or RuRe-2 at the indicated concentration, cells were cultured for 48 h. 20 μL MTT was added to each well 4 h before the end of the incubation. Subsequently, the liquid in the cell wells was poured out and 150 μL/well DMSO was added to dissolve the MTT-formazan crystals. The absorbance of living cells at 570 nm was detected.

[2] = system: HepG2 (human hepatocellular carcinoma); assay: MTT cytotoxicity assay; type: cell-based; conditions: 48 h incubation, mean ± SD
Experimental: as §1, §2, §3

[3] = system: A549 (human lung cancer cells); assay: MTT cytotoxicity assay; type: cell-based; conditions: 48 h incubation, mean ± SD
Experimental: as §1, §2, §3

[4] = system: LO2 (human normal liver cells); assay: MTT cytotoxicity assay; type: cell-based; conditions: 48 h incubation, mean ± SD
Experimental: as §1, §2, §3

[5] = system: HeLa cells; assay: Hoechst 33342 staining of nuclear morphology; type: cell-based, human; conditions: 24 h
Experimental: First, changes in cell morphology of HeLa cells induced by RuRe-1 and RuRe-2 were examined with 2'-(4-ethoxyphenyl)-5-(4-methyl-1-piperazinyl)-2,5′-bi-1H-benzimidazole trihydrochloride (Hoechst 33342) staining. Hoechst 33342 is a blue fluorescent dye that can penetrate cell membranes and is commonly used to stain cell nuclei ([Tian et al., 2018]).
FIGURE 2 RuRe-1 and RuRe-2 induced HeLa cells apoptosis measured by confocal microscopy with Hoechst 33342 staining (λ ex = 405 nm, λ em = 460 ± 20 nm). The incubation time of the compounds was 24 h. Arrows indicate apoptotic morphological nuclei. Scale bar: 20 μm.
Hoechst 33342 staining assay. After HeLa cells were adhered to the confocal dishes, the medium was replaced with a medium containing the indicated concentrations of RuRe-1 and RuRe-2. After incubation for 24 h, the medium was aspirated and the cells were washed three times with PBS, then fixed with 4% paraformaldehyde. Subsequently, cells were labelled 10 mins with Hoechst 33342 (5 μg/mL) and observed immediately under confocal microscope (λex = 405 nm, λem = 460 ± 20 nm).

[6] = system: HeLa cells; assay: Cell cycle analysis by flow cytometry with PI staining; type: cell-based, human; conditions: 24 h; for S cell cycle population: control 14.4 ± 0.9; for G2/M cell cycle population: control 21.4 ± 0.7; for G0/G1 cell cycle population: control 64.2 ± 1.3
From the text: Cell cycle arrest studies provide a good understanding of cell apoptosis induced by metal drugs ([Sadoughi et al., 2021]). To further clarify the mechanism of apoptosis induced by RuRe-1 and RuRe-2, we analyzed the cell cycle of HeLa cells treated with RuRe-1 and RuRe-2 by flow cytometry with PI staining. […] A corresponding decrease in cell content in G1 and G2 phases was observed.
Cell cycle analysis. After HeLa cells were adhered to the 6-well plates, the medium was replaced with medium containing different concentrations of RuRe-1 and RuRe-2 for 24 h. Cells were collected and fixed for 24 h with pre-cooled 70% ethanol, then washed twice with PBS and finally stained with PI staining solution in a warm bath at 37 °C for 30 mins. The samples were detected by flow cytometry.

[7] = system: HeLa cells; assay: Wound healing assay (cell migration); type: cell-based, human; conditions: 36 h, control 15%
Experimental: Metastasis is a major obstacle to cancer treatment, which will cause the failure of cancer treatment and the death of patients ([Fouani et al., 2017]). Cell migration is the main feature of metastasis. Herein, the effects of RuRe-1 and RuRe-2 on inhibiting cell migration were studied through wound healing. […] After 36 h cultivated, both RuRe-1 and RuRe-2 inhibited cell migration, and the wound closure rates were 3% and 2%, respectively, which were lower than 15% of the control group (Figure 8B).
FIGURE 8 (A) Wound healing of HeLa cells after treated with RuRe-1 (3.1 μM) and RuRe-2 (2.5 μM) for 0, 24, and 36 h. (B) Quantitative data of wound-healing. Wound closure (%) = [1−(width at indicated time)/(width at 0 h)] × 100%. (C) Inhibition of colony formation by RuRe-1 and RuRe-2. (D) Quantitative data of colony formation assays.
Wound healing assay. When reaching 80%–90% confluence, the cells were crossed with a 200 μL pipette tip, then photographed under an inverted microscope to record the width of the scratch. After the cells recovered for 1 h, the serum-free medium containing the indicated concentrations of RuRe-1 and RuRe-2 were added and incubated for a specific time (24 h, 36 h), meantime, the width of the scratch was recorded.

Q: What does the source list for `F[P-](F)(F)(F)(F)F.F[P-](F)(F)(F)(F)F.F[P-](F)(F)(F)(F)F.[C-]#[O+].[C-]#[O+].[C-]#[O+].[Re+].[Ru+2].c1ccc(-c2ccccn2)nc1.c1ccc(-c2ccccn2)nc1.c1ccc(-c2ccnc3c2ccc2c(-c4ccccc4)ccnc23)cc1.c1cnc2c(c1)c1nc(-c3ccncc3)[nH]c1c1cccnc12` [RuRe-1, [Ru(bpy)2LRe(CO)3(DIP)](PF6)3]?
A: IC50 [1]: 3.1 ± 0.8 µM; IC50 [2]: 10 ± 0.8 µM; IC50 [3]: 11.8 ± 0.4 µM; IC50 [4]: 25.1 ± 0.7 µM; nuclear morphology (Hoechst 33342) [5]: typical apoptotic characteristics; S cell cycle population ([6]; 6.2 μM): 12.5 ± 0.2%; G2/M cell cycle population ([6]; 6.2 μM): 18.7 ± 1.3%; G0/G1 cell cycle population ([6]; 6.2 μM): 68.8 ± 0.5%; S cell cycle population ([6]; 9.3 μM): 27.4 ± 0.9%; G2/M cell cycle population ([6]; 9.3 μM): 16.1 ± 1.1%; G0/G1 cell cycle population ([6]; 9.3 μM): 56.5 ± 1.1%; S cell cycle population ([6]; 12.4 μM): 33.8% and 33.8 ± 1.2%; G2/M cell cycle population ([6]; 12.4 μM): 14.5 ± 1.1%; G0/G1 cell cycle population ([6]; 12.4 μM): 51.7 ± 0.9%; wound closure rate ([7]; 3.1 μM): 3%

Q: What does the source list for `F[P-](F)(F)(F)(F)F.F[P-](F)(F)(F)(F)F.F[P-](F)(F)(F)(F)F.[C-]#[O+].[C-]#[O+].[C-]#[O+].[Re+].[Ru+2].c1ccc(-c2ccnc3c2ccc2c(-c4ccccc4)ccnc23)cc1.c1cnc2c(c1)c1nc(-c3ccncc3)[nH]c1c1cccnc12.c1cnc2c(c1)ccc1cccnc12.c1cnc2c(c1)ccc1cccnc12` [RuRe-2, [Ru(phen)2LRe(CO)3(DIP)](PF6)3]?
A: IC50 [1]: 2.5 ± 1.3 µM; IC50 [2]: 12.5 ± 0.9 µM; IC50 [3]: 11.2 ± 0.9 µM; IC50 [4]: 28.1 ± 1.1 µM; nuclear morphology (Hoechst 33342) [5]: typical apoptotic characteristics; S cell cycle population ([6]; 5.0 μM): 16.8 ± 1.6%; G2/M cell cycle population ([6]; 5.0 μM): 17.9 ± 1.4%; G0/G1 cell cycle population ([6]; 5.0 μM): 65.3 ± 0.9%; S cell cycle population ([6]; 7.5 μM): 39.9 ± 1.5%; G2/M cell cycle population ([6]; 7.5 μM): 7.4 ± 0.5%; G0/G1 cell cycle population ([6]; 7.5 μM): 52.7 ± 1.3%; S cell cycle population ([6]; 10.0 μM): 40.0% and 40.0 ± 0.6%; G2/M cell cycle population ([6]; 10.0 μM): 7.6 ± 0.2%; G0/G1 cell cycle population ([6]; 10.0 μM): 52.4 ± 1.0%; wound closure rate ([7]; 2.5 μM): 2%
